Measured values from patent US12059422B2 (MEI Pharma, Inc., priority 2011, dated 2024).

Experiments:
PI3K alpha = molecular target: T1, PI3K alpha (Homo sapiens, UniProt P42336); assay: Luciferase-based luminescence assay (KinaseGlo), PI3K alpha enzymatic activity; type: biochemical; conditions: inhibition of enzymatic activity, 25 μM ATP, read-out: IC50 p110α
T1 construct: purchased Invitrogen Corp., Carlsbad, CA, USA
Outline: (§1)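 KinaseGlo luminescence measured ATP remaining after PIP2 (50 μM) phosphorylation with 25 μM ATP in HEPES pH 7.5 buffer with CHAPS and DTT. Final enzyme was 1.65 nM alpha (1 h reaction) or 6.86 nM delta (2 h reaction). IC50 was curve-fitted from 10 concentrations.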

mTOR = mTOR (Homo sapiens, UniProt P42345); assay: mTOR inhibition (Table 1); type: biochemical; conditions: Table 1, no method described
PI3Kδ = molecular target: T2, PI3Kδ (Homo sapiens, UniProt O00329); assay: ELISA assay for PI3Kδ: sandwich ELISA, phosphorylation of AKT (Thr308) in Raji cells; type: cell-based; conditions: for IC50: cellular, pAKT (Thr308), Raji cells, anti-Human IgM stimulation, read-out: IC50 p110δ; for α/δ ratio / β/δ ratio / γ/δ ratio: ratio of cellular IC50 values, Table 2
T2 construct: endogenous in cells; host or cells: Raji (ATCC #CCL-86)
Protocol: Cellular PI3Kδ activity was determined by measuring the phosphorylation of AKT (Thr308) using a sandwich enzyme-linked immunosorbant assay (ELISA). Raji (Burkitt's Lymphoma) cells were obtained from ATCC (ATCC #CCL-86). Phosphate buffer saline (PBS) contained 2.7 M NaCl, 54 mM KCl, 86 mM […] (dibasic, anhydrous), and 28 mM […] (monobasic, anhydrous) at pH 7.2. Wash buffer contained PBS supplemented with 0.05% Tween-20. Blocking buffer contained wash buffer supplemented with 1% BSA. A 10× stimulation mixture contained 5 μg/mL anti-Human IgM antibody (Sigma #12386) diluted in serum-free RPMI medium (CellGro #CV-10-040-CV). Compounds for testing were dissolved and serially diluted in 100% DMSO (total of 10 concentrations), and then diluted in serum-free RPMI to 5×final assay concentration.
Raji cells were subcultured in RPMI medium supplemented with 10% fetal bovine serum, 100 IU/mL penicillin, 100 μg/mL streptomycin, and 1×MEM non-essential amino acids. Sandwich ELISA plates were prepared by coating 96-well assay plates (Pierce #15042) with 100 μL/well capture antibody (Cell Signaling Technology #7142 or 7144) diluted in PBS. Plates were incubated overnight at 4° C., then washed with wash buffer, after which 200 μL/well blocking buffer was added to the plates and incubated at room temperature for at least 2 hrs. Raji cells were resuspended in serum-free RPMI medium and seeded into V-bottom, 2-mL 96-well blocks (Corning #3961) at 10^6 cells/well, then incubated for 2 hrs in a 37° C., 5% CO2 incubator. Compound treatment was performed by adding the 5× compound mixture to the cells and incubating for 2 hrs at 37° C., 5% CO2, after which the 10× stimulation mixture was added to the plates and incubated for 30 min at 37° C., 5% CO2. Cells were pelleted by centrifuging plates at 1500 RPM for 5 min at room temperature. Media was carefully removed and cells were lysed by adding 100 μL/well cell lysis buffer (Cell Signaling Technology #9803) supplemented with protease and phosphatase inhibitors (Thermo Fisher #78443). Plates were incubated on ice for 30 min, then the lysates (80 μL for pAKT^T308, 10 μL for total AKT) were transferred to prepared assay plates and incubated at 4° C. overnight. After washing plates with wash buffer, 100 μL/well detection antibody (Cell Signaling Technology #7142 or 7144) diluted in blocking buffer was added to the plates and incubated for 1 hr at 37° C. Plates were washed and 100 μL/well of HRP-conjugated secondary antibody (Cell Signaling Technology #7142 or 7144) diluted in blocking buffer was added to plates and incubated for 1 hr at room temperature. Plates were washed with wash buffer and 100 μL/well of luminescent substrate was added to plates. After 1 min on a plate shaker at medium speed, luminescence was read on a Wallac Victor2 plate reader. IC50 values were determined by curve fitting using a Collaborative Drug Discovery database (www.collaborativedrug.com).

PI3K delta = molecular target: T3, PI3K delta (Homo sapiens, UniProt O00329); assay: Luciferase-based luminescence assay (KinaseGlo), PI3K delta enzymatic activity; type: biochemical; conditions: for IC50: inhibition of enzymatic activity, KinaseGlo, 25 μM ATP, read-out: IC50 p110δ; for α/δ ratio: ratio of enzymatic IC50 against PI3Kα over IC50 against PI3Kδ; for β/δ ratio / γ/δ ratio: ratio of enzymatic IC50 values, Table 1
T3 construct: purchased Millipore, Billerica, MA, USA
Outline: as §1

T3 sequence (O00329 whole entry, species assumed): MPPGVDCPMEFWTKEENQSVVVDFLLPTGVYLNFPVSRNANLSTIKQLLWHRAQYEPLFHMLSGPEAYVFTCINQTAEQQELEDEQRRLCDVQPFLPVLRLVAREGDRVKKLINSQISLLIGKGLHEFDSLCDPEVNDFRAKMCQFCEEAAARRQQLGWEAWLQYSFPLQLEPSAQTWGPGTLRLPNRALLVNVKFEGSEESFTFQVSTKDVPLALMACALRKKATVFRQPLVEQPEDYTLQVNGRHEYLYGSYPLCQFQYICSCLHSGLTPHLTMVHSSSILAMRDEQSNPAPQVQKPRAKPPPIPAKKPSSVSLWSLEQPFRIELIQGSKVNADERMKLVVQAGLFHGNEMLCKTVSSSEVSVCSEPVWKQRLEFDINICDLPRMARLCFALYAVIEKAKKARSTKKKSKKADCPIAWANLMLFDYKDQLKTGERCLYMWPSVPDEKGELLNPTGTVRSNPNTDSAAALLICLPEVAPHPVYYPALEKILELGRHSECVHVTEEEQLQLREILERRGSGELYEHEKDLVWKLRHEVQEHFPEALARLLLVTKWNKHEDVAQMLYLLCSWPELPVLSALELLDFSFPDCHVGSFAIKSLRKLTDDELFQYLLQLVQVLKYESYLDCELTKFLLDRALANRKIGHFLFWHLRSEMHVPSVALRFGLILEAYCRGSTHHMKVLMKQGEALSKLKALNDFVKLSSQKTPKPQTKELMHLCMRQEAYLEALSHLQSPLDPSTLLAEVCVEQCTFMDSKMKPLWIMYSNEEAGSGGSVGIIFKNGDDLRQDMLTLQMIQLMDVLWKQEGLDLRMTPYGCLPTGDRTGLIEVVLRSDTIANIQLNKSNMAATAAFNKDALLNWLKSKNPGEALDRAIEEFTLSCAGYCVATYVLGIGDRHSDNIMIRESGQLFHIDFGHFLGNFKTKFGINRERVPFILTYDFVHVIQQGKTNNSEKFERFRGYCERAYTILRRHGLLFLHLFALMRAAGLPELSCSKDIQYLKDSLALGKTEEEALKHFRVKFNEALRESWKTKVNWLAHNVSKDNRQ
T3 sequence (P27986 whole entry partner, species assumed): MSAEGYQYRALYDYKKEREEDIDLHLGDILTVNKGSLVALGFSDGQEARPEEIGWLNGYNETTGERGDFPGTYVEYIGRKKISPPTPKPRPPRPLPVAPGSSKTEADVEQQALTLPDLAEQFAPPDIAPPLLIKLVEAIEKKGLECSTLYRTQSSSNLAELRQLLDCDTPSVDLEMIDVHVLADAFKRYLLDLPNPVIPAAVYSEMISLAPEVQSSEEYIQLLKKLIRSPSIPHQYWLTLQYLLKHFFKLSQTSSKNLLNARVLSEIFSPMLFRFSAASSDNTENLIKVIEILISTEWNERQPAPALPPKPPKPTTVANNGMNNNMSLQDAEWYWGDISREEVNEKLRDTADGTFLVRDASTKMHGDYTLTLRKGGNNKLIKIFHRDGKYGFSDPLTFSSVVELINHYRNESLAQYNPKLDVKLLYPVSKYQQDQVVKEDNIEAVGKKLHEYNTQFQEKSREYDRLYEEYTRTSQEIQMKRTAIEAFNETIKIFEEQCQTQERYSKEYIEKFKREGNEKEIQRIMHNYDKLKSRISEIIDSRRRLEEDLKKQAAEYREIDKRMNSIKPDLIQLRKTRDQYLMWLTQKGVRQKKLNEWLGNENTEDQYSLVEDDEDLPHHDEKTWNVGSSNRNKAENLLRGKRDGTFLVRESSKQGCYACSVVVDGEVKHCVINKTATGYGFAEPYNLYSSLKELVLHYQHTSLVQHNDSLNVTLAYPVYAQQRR
T2 sequence (O00329 whole entry): as the sequence (O00329 whole entry, species assumed) above
T2 sequence (P27986 whole entry partner): as the sequence (P27986 whole entry partner, species assumed) above
T1 sequence (P42336 whole entry, species assumed): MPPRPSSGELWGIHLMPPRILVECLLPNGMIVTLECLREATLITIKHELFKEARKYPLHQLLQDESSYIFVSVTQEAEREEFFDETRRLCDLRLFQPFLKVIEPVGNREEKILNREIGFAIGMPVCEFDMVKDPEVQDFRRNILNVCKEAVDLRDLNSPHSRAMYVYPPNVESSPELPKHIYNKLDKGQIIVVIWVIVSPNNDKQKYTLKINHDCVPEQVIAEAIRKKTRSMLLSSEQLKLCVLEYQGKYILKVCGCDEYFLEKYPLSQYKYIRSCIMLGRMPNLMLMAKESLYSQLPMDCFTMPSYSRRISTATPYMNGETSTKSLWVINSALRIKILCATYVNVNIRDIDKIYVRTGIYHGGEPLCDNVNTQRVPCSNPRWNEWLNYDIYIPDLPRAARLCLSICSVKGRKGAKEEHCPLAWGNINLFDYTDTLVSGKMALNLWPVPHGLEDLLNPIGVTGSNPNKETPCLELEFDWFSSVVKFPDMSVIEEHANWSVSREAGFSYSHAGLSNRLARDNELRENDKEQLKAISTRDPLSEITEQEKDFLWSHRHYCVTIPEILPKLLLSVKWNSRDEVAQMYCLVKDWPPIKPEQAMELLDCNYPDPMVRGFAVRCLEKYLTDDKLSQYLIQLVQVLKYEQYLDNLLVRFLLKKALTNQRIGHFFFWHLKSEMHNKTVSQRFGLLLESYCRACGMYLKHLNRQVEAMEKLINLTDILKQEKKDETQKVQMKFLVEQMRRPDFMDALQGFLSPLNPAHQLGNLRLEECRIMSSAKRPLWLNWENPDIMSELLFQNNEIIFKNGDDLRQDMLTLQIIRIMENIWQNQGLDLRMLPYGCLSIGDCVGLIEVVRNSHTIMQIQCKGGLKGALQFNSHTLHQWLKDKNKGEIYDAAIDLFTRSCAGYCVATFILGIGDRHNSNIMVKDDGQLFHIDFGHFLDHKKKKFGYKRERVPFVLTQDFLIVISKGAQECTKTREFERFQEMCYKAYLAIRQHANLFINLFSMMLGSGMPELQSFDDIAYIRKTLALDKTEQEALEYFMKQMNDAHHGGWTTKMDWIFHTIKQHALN
T1 sequence (P27986 whole entry partner, species assumed): as the sequence (P27986 whole entry partner, species assumed) above

Structure (SMILES)	IC50 (PI3K alpha) [nM]	IC50 (mTOR) [nM]	IC50 (PI3Kδ) [nM]	α/δ ratio (PI3Kδ)	β/δ ratio (PI3Kδ)	γ/δ ratio (PI3Kδ)	IC50 (PI3K delta) [nM]	α/δ ratio (PI3K delta)	β/δ ratio (PI3K delta)	γ/δ ratio (PI3K delta)
CC(C)(Cc1ccccc1Cl)Nc1nc(N2CCOCC2)nc(-n2c(C(F)F)nc3ccccc32)n1 [Compound A16, 4-(2-(difluoromethyl)-1H-benzo[d]imidazol-1-yl)-N-(1-(2-chlorophenyl)-2-methylpropan-2-yl)-6-morpholino-1,3,5-triazin-2-amine]	> 500	> 500	≤ 100	A’	A’	A’	≤ 100	A’	D’	C’
CN(C)CCCc1ccccc1CC(C)(C)Nc1nc(N2CCOCC2)nc(-n2c(C(F)F)nc3ccccc32)n1 [Compound A76, 4-(2-(difluoromethyl)-1H-benzo[d]imidazol-1-yl)-N-(1-(2-(3-(dimethylamino)propyl)phenyl)-2-methylpropan-2-yl)-6-morpholino-1,3,5-triazin-2-amine]	> 500	> 500	≤ 100	A’	A’	A’	≤ 100	A’	A’	A’
CC(C)(Cc1ccccc1F)Nc1nc(N2CCOCC2)nc(-n2c(C(F)F)nc3ccccc32)n1 [Compound A15, 4-(2-(difluoromethyl)-1H-benzo[d]imidazol-1-yl)-N-(1-(2-fluorophenyl)-2-methylpropan-2-yl)-6-morpholino-1,3,5-triazin-2-amine]	> 500	> 500	≤ 100	A’	C’	A’	≤ 100	A’	C’	A’
COc1cc(CC(C)(C)Nc2nc(N3CCOCC3)nc(-n3c(C(F)F)nc4ccccc43)n2)ccc1F [Compound A50, 4-(2-(difluoromethyl)-1H-benzo[d]imidazol-1-yl)-N-(1-(4-fluoro-3-methoxyphenyl)-2-methylpropan-2-yl)-6-morpholino-1,3,5-triazin-2-amine]	> 500	> 500	≤ 100	A’	A’	A’	≤ 100	A’	C’	A’
CC(C)(Cc1ccccc1-c1cccnc1F)Nc1nc(N2CCOCC2)nc(-n2c(C(F)F)nc3ccccc32)n1 [Compound A62]	> 500	> 500	≤ 100	A’	A’	A’	≤ 100	A’	A’	A’
COc1cccc(-c2ccccc2CC(C)(C)Nc2nc(N3CCOCC3)nc(-n3c(C(F)F)nc4ccccc43)n2)c1 [Compound A66, 4-(2-(difluoromethyl)-1H-benzo[d]imidazol-1-yl)-N-(1-(3′-methoxybiphenyl-2-yl)-2-methylpropan-2-yl)-6-morpholino-1,3,5-triazin-2-amine]	> 500	> 500	≤ 100	A’	A’	A’	≤ 100	A’	A’	A’
Cc1ccccc1CC(C)(C)Nc1nc(N2CCOCC2)nc(-n2c(C(F)F)nc3ccccc32)n1 [Compound A18, 4-(2-(difluoromethyl)-1H-benzo[d]imidazol-1-yl)-N-(2-methyl-1-(o-tolyl)propan-2-yl)-6-morpholino-1,3,5-triazin-2-amine]	> 500	> 500	≤ 100	A’	A’	A’	≤ 100	A’	D’	B’
CC(C)(Cc1ccccc1-c1ccccc1Cl)Nc1nc(N2CCOCC2)nc(-n2c(C(F)F)nc3ccccc32)n1 [Compound A61, 4-(2-(difluoromethyl)-1H-benzo[d]imidazol-1-yl)-N-(1-(6′-chlorobiphenyl-2-yl)-2-methylpropan-2-yl)-6-morpholino-1,3,5-triazin-2-amine]	> 500	> 500	≤ 100	A’	A’	A’	≤ 100	A’	D’	A’
CCN1CCC(c2ccccc2CC(C)(C)Nc2nc(N3CCOCC3)nc(-n3c(C(F)F)nc4ccccc43)n2)CC1 [Compound A70, 4-(2-(difluoromethyl)-1H-benzo[d]imidazol-1-yl)-N-(1-(2-(1-ethylpiperidin-4-yl)phenyl)-2-methylpropan-2-yl)-6-morpholino-1,3,5-triazin-2-amine]	> 500	> 500	≤ 100	A’	A’	A’	≤ 100	A’	A’	A’
Cc1ccccc1-c1ccccc1CC(C)(C)Nc1nc(N2CCOCC2)nc(-n2c(C(F)F)nc3ccccc32)n1 [Compound A60, 4-(2-(difluoromethyl)-1H-benzo[d]imidazol-1-yl)-N-(2-methyl-1-(2′-methylbiphenyl-2-yl)propan-2-yl)-6-morpholino-1,3,5-triazin-2-amine]	> 500	> 500	≤ 100	A’	A’	A’	≤ 100	A’	D’	A’
CC(C)(Cc1ccccc1C1CCN(S(C)(=O)=O)CC1)Nc1nc(N2CCOCC2)nc(-n2c(C(F)F)nc3ccccc32)n1 [Compound A73, 4-(2-(difluoromethyl)-1H-benzo[d]imidazol-1-yl)-N-(2-methyl-1-(2-(1-(methylsulfonyl)piperidin-4-yl)phenyl)propan-2-yl)-6-morpholino-1,3,5-triazin-2-amine]	200 to 500	> 500	≤ 100	A’	C’	A’	≤ 100	A’	D’	B’
CC(C)(Cc1ccccc1-c1ccncc1)Nc1nc(N2CCOCC2)nc(-n2c(C(F)F)nc3ccccc32)n1 [Compound A33, 4-(2-(difluoromethyl)-1H-benzo[d]imidazol-1-yl)-N-(2-methyl-1-(2-(pyridin-4-yl)phenyl)propan-2-yl)-6-morpholino-1,3,5-triazin-2-amine]	200 to 500	> 500	≤ 100	–	A’	A’	≤ 100	A’	D’	A’
CN1CCC(c2ccccc2CC(C)(C)Nc2nc(N3CCOCC3)nc(-n3c(C(F)F)nc4ccccc43)n2)C1 (stereo not drawn) [Compound A75, 4-(2-(difluoromethyl)-1H-benzo[d]imidazol-1-yl)-N-(2-methyl-1-(2-(1-methylpyrrolidin-3-yl)phenyl)propan-2-yl)-6-morpholino-1,3,5-triazin-2-amine]	–	–	≤ 100	A’	B’	A’	–	–	–	–
